In brackets after ≈: the same amount, converted by molar mass.

From PubChem BioAssay AID1996 come the findings set out here.

For this data set the following is noted: buffer; pH 7.4; 200.0 µM.
Usually solubility (kinetic) stands for the concentration staying in solution when a stock, usually in DMSO, is diluted into the medium. For `CN(C)CCCNc1oc(-c2ccc(Cl)cc2)nc1S(=O)(=O)c1ccccc1`, the solubility (kinetic) is > 63 µg/mL.
As to `CCOc1ccc(N2C(=O)CC(Sc3nc(O)c(CC)c(=O)[nH]3)C2=O)cc1` (centres undefined), the solubility (kinetic) was > 58.4 µg/mL.
In turn, `Cc1cc(C)cc(NC(=O)Nc2ccccc2N2CCCCC2)c1` registered a kinetic solubility of 25.5 µg/mL (≈ 78.8 µM).
As for `O=C(Nc1ccncc1Cl)c1ccncc1`, the figure is > 35 µg/mL; as for `CCCCNS(=O)(=O)c1ccc2nc(SCC(N)=O)[nH]c2c1`, > 51.4 µg/mL; as for `CCCN(CC(=O)Nc1ccccc1OC)C(=O)c1ccccn1`, > 49.1 µg/mL.
Turning to `Oc1ccc2ccccc2c1CN1CCOCC1`, the solubility (kinetic) was > 36.5 µg/mL.
In turn, `COc1ccc(C(=O)OCC(=O)Nc2ccc(Cl)cn2)cc1` had a solubility (kinetic) of 1.2 µg/mL (≈ 3.74 µM).
On to `COC(CNS(=O)(=O)c1cccc2nonc12)OC`, for which the solubility (kinetic) is > 43.1 µg/mL.
As for `COC(=O)c1ccc(NC(=O)CCCN2C(=O)NC(C)(C)C2=O)cc1`, the figure is > 52.1 µg/mL.
Compound `O=C(N1CCCC1)C12CC3CCC(CC(C3)C1)C2` gave a kinetic solubility of 28.4 µg/mL (≈ 115 µM).
The figure for `CC1=CC(C)(C)NC(=S)N1c1cc(C)cc(C)c1` is 8.7 µg/mL (≈ 33.4 µM); for `COC(=O)c1ccc(N2CCc3ccccc32)c([N+](=O)[O-])c1` it is 1 µg/mL (≈ 3.35 µM).
The figure for `CCOC(=O)c1sc(NC(=O)CSC(=S)N2CCOCC2)nc1C` is 0.6 µg/mL (≈ 1.54 µM); for `CCN(CC)Cc1c(O)ccc2c1O/C(=C\C=C\c1ccccc1)C2=O` it is 42.2 µg/mL (≈ 121 µM); for `Cc1c(C(=O)NC(C)C2CC3CCC2C3)cccc1[N+](=O)[O-]` (centres undefined) it is 34.3 µg/mL (≈ 113 µM).
The figure for `CN1C(=O)/C(=C/C=C2\SCCN2C)N(C)C1=S` is 8 µg/mL (≈ 29.7 µM).
Consider `O=C(O)C1CCN(c2ccccc2[N+](=O)[O-])CC1`, for which the kinetic solubility is > 37.5 µg/mL.
Turning to `Cn1cnc2c1c(=O)n(Cc1cccc(Cl)c1)c(=O)n2C`, the solubility (kinetic) is > 45.7 µg/mL.
As for `O=C(N/N=C/c1ccccc1O)c1ccncc1`, the figure is > 36.2 µg/mL; as for `CC(C)Cc1ccc(S(=O)(=O)Nc2cccnc2)cc1`, 14.3 µg/mL (≈ 49.2 µM).
On to `O=C(CN1c2cccc3cccc(c23)S1(=O)=O)NCCc1ccc(F)cc1`, for which the solubility (kinetic) is 1.9 µg/mL (≈ 4.94 µM).
The figure for `COS(=O)(=O)[O-].Cn1c(-c2ccc3ccccc3n2)[n+](C)c2ccccc21` is > 57.8 µg/mL; for `CC(C)CNS(=O)(=O)c1cc2c3c(c1)CCC(=O)N3CCC2` it is > 48.4 µg/mL.
The figure for `Cc1nccn1CC(O)COc1ccc([N+](=O)[O-])cc1` (centres undefined) is > 41.6 µg/mL; for `CCS(=O)(=O)c1ccc(O)c(NC(=O)CCCC(=O)O)c1` it is 41.5 µg/mL (≈ 132 µM).
The figure for `COc1ccccc1NC(=O)C(C)OC(=O)CC1CCCC1` (centres undefined) is 29.4 µg/mL (≈ 96.3 µM); for `CC(=O)c1ccc(N2CCN(C(C)C(=O)Nc3ccc4c(c3)OCCO4)CC2)cc1` (centres undefined) it is 5.1 µg/mL (≈ 12.5 µM); for `COC(=O)c1ccccc1NC(=O)CN1CCc2ccccc2C1` it is 10.7 µg/mL (≈ 33 µM).
On to `Cl.O=C(c1cc2c(s1)CCCC2)N1CCN(CCO)CC1`, for which the kinetic solubility was > 49.6 µg/mL.
Turning to `COc1ccc(CNc2ccc(Br)cc2)cc1`, the solubility (kinetic) is < 0.6 µg/mL.
The figure for `NC(=O)NC(=O)COC(=O)/C=C/c1cccs1` is 10.4 µg/mL (≈ 40.9 µM); for `O=C(CC1NC(=S)NC1=O)c1ccc(Cl)cc1` (centres undefined) it is 3.2 µg/mL (≈ 11.9 µM).
The figure for `Cc1c(F)cccc1NC(=O)CCCCCC1NC(=O)NC1C` (centres undefined) is 46.7 µg/mL (≈ 145 µM).
The compound `CC(OC(=O)Cn1cc(C(F)(F)F)ccc1=O)C(=O)N(C)c1ccccc1` (centres undefined) registered a kinetic solubility of 57.2 µg/mL (≈ 150 µM).
As for `Cl.OCCNCc1cccc(Br)c1`, the figure is > 40 µg/mL; as for `CCOc1ccc(N2C(=O)CC(C(C)c3ccccc3)C2=O)cc1` (centres undefined), 5.7 µg/mL (≈ 17.6 µM); as for `CC1CCCN(C(=O)COC(=O)C2=COCCO2)C1` (centres undefined), > 40.4 µg/mL.
The figure for `CC1(C)CC(CC(=O)O)CC(C)(C)N1.Cl` is > 35.4 µg/mL; for `Cc1cc(C(C)(C)C)ccc1NC(=O)CC(C)(C)CC(=O)O` it is > 45.8 µg/mL; for `CCc1ccc(N2C(=O)C(Cl)=C(N3CCCCCC3)C2=O)cc1` it is 1.7 µg/mL (≈ 5.11 µM).
The figure for `O=C(COC(=O)c1cnccn1)NC(=O)c1ccccc1` is > 42.8 µg/mL; for `NS(=O)(=O)c1cnccc1Nc1cccc(Br)c1` it is 36.3 µg/mL (≈ 111 µM); for `Cc1onc(-c2ccccc2Cl)c1C(=O)N1CCC(C)CC1` it is > 47.8 µg/mL.
Regarding `CN(CC(=O)Nc1ccc(F)cc1)C(=O)c1ccccc1OCc1ccc(F)cc1`, the solubility (kinetic) is 30.4 µg/mL (≈ 74.1 µM).
The figure for `CC(C)N(C(=O)Cn1cc(SCC(N)=O)c2ccccc21)C(C)C` is > 52.1 µg/mL; for `Cl.Nc1cccc(Nc2ncnc3ccccc23)c1` it is 31.9 µg/mL; for `COc1ccc(S(=O)(=O)N2CCN(C(=O)C3CC3)CC2)cc1` it is 48.6 µg/mL (≈ 150 µM).
Take `CCCC(=O)Nc1ccc(NC(=O)c2cccc(OC)c2)cn1`: the solubility (kinetic) was 8.7 µg/mL (≈ 27.8 µM).
In turn, `COC(=O)c1ccc(COc2ccc(C)cc2[N+](=O)[O-])o1` came in with a solubility (kinetic) of 3.3 µg/mL (≈ 11.3 µM).
`CCOc1ccc2[nH]c3c(N4CCc5ccccc5C4)ncnc3c2c1` returned a kinetic solubility of 1.2 µg/mL (≈ 3.48 µM).
Take `C=CCn1c(=O)c2c(nc3n2CCCN3Cc2ccccc2)n(C)c1=O`: the kinetic solubility came out at 19.5 µg/mL (≈ 55.5 µM).
For the compound `C/C(=N\O)c1cccc(Br)c1`, the kinetic solubility is 18.1 µg/mL (≈ 84.6 µM). The solubility kinetic values of the last two compounds are within 1.5-fold of each other.
Regarding `Fc1cccc(Cc2noc(CN3CCSCC3)n2)c1`, the solubility (kinetic) was > 44 µg/mL.
As for `Cc1cccn2c(=O)nc(SCC(=O)NC3CCCCC3)nc12`, the figure is > 49.9 µg/mL; as for `O=C(CCc1ccccc1)Nc1cccnc1`, > 33.9 µg/mL.
The figure for `O=C1OC(C(=O)Nc2ccccc2)Cc2ccccc21` (centres undefined) is 10.9 µg/mL (≈ 40.8 µM); for `O=C(Cc1ccc(Cl)cc1)Nc1ncccn1` it is > 37.2 µg/mL.
On to `O=[N+]([O-])c1ccc(NCCCN2CCOCC2)c2ncccc12`, for which the solubility (kinetic) worked out at 2.5 µg/mL (≈ 7.9 µM).
Regarding `O=C(CCc1ccc(S(=O)(=O)N2CCOCC2)cc1)OCC(=O)c1ccccc1F`, the solubility (kinetic) was 49.6 µg/mL (≈ 114 µM).
`CC(=O)c1c(N2CCOCC2)nc2ccc(Cl)cc2c1-c1ccccc1` displayed a solubility (kinetic) of 1.8 µg/mL (≈ 4.91 µM).
As for `CC1CCN(CCc2nc3ccccc3[nH]2)CC1`, the figure is 33.7 µg/mL (≈ 138 µM); as for `O=C(CCNC(=O)c1ccccc1Cl)Nc1ccc(S(=O)(=O)Nc2nccs2)cc1`, > 69.7 µg/mL; as for `O=C(Nc1ccc(Cl)cc1)Nc1ccccn1`, 0.6 µg/mL (≈ 2.42 µM).
As for `COC(c1ccccc1)c1nnc(CCC(=O)NC2CCCCC2)o1` (centres undefined), the figure is > 51.5 µg/mL.
As for `COc1ccc(NC(=O)c2cc3ccccc3o2)cn1`, the figure is 3.8 µg/mL (≈ 14.2 µM); as for `CCCCN1C(=O)c2ccc(C(=O)N(C)CC(=O)Nc3ccc(OCC)c(OCC)c3)cc2C1=O`, 17.5 µg/mL (≈ 36.3 µM).
For the compound `COc1cccc(Nc2ncc(C#N)c(N)n2)c1`, the kinetic solubility came to 31.9 µg/mL (≈ 132 µM).
As for `CCc1nc(Nc2cccc(OC)c2)c2oc3ccccc3c2n1.Cl`, the figure is 0.5 µg/mL.
For the compound `CCCCn1c(N)c(N(CCOC)C(=O)CSc2nnc(-c3ccco3)n2CC)c(=O)[nH]c1=O`, the solubility (kinetic) was > 73.7 µg/mL.
`CC1CN(C(=O)CCS(=O)(=O)c2ccccc2)CC(C)O1` (centres undefined) had a kinetic solubility of 43.2 µg/mL (≈ 139 µM).
The figure for `COCCNc1nc2nonc2nc1N(C)Cc1ccc(C)cc1` is > 49.3 µg/mL; for `CCOc1ccc(N(C(C)C(=O)N2CCCC2)S(C)(=O)=O)cc1` (centres undefined) it is > 51.1 µg/mL.
As for `O=C(NCc1ccccc1F)C1CCCN1C(=O)Nc1cccc(F)c1` (centres undefined), the figure is > 53.9 µg/mL.
